Data: US20220064647A1, “COMPOSITIONS AND METHODS FOR TREATING CYSTIC FIBROSIS” (SpliSense Ltd., priority 2019, published 2022)

Biological target: T1, CFTR del Ex24 (Homo sapiens, UniProt P13569, DEL1292-1321)
T1 construct: expressed in transfected cells; host or cells: HEK 293 cells, transient transfection with Lipofectamine 2000
Test: FLIPR membrane potential assay of CFTR function
Format: cell-based
Conditions: HEK 293 cells transiently transfected with CFTR del Ex24; activated by forskolin 10 uM; FIG. 1B
Experimental: HEK cells were transiently transfected with a construct bearing a CFTR transcript having exon 24 completely deleted from it (CFTR del Ex24). Transfection was carried out using Lipofectamine 2000 transfection reagent (Invitrogen) according to the lipofectamine 2000 reagent protocol using the following lipofectamine amounts: 96 well—0.15 μl, 6 well—3 μl, 10 mm plate—15 μl. HEK cells transfected with the CFTR del Ex24 construct were grown in 96-well (black, flat bottom; corning) plates. 48 hr post-transfection, CFTR channel function was analyzed using the FLIPR membrane potential assay as previously described (Molinski et al., 2015). Briefly, the cells were loaded with blue membrane potential dye (Molecular Devices), which can detect changes in transmembrane potential. The plate was then read in a fluorescence plate reader (BioTek Synergy H1) for baseline levels followed by CFTR stimulation using the cAMP agonist forskolin (10 μM; Sigma), DMSO vehicle was used as a negative control. CFTR-mediated depolarization of the plasma membrane was detected as an increase in fluorescence and hyperpolarization (or repolarization) as a decrease. […] FLIPR™ (Fluorescence Imaging Plate Reader) is a functional system that allows measuring changes in membrane potential by a fluorescent indicator. […]

T1 sequence (P13569 with tags, fused parts or gaps DEL1292-1321): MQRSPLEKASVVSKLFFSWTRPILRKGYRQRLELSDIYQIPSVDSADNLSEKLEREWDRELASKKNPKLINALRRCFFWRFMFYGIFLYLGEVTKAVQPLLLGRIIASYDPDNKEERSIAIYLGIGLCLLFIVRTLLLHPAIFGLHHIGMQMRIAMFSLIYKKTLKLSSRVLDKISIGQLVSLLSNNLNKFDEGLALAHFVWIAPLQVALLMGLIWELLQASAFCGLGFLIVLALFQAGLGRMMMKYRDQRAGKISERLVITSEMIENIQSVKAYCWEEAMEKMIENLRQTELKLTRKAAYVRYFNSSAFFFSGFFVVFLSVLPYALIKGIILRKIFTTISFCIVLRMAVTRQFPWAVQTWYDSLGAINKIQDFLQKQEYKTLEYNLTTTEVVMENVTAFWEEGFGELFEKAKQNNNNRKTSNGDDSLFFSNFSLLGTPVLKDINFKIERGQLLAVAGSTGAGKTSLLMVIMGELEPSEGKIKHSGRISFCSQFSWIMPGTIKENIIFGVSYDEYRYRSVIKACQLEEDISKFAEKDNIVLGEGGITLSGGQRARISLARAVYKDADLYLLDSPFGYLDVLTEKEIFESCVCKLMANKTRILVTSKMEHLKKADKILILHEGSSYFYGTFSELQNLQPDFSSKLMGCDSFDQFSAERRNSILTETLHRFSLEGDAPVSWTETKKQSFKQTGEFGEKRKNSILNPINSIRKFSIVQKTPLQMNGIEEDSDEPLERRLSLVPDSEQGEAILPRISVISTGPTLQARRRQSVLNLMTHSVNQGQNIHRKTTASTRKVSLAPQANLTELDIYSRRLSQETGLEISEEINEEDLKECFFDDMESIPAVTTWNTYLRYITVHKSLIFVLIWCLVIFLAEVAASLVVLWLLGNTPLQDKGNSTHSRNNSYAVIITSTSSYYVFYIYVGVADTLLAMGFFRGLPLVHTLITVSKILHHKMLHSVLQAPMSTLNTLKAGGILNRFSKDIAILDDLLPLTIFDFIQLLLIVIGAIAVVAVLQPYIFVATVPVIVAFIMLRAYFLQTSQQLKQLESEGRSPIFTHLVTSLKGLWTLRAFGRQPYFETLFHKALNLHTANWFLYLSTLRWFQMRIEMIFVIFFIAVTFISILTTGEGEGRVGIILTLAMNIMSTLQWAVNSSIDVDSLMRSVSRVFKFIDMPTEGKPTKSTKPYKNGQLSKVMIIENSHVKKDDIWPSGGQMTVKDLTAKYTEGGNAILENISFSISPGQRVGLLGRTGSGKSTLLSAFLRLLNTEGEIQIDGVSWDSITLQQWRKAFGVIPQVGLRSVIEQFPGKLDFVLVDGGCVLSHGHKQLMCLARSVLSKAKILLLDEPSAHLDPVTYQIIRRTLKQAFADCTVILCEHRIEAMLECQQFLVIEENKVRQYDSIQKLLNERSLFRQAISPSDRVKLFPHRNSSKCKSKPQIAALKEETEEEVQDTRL

channel activation: 50 % of WT
SMILES: CC(C)(C)c1cc(C(C)(C)C)c(NC(=O)c2c[nH]c3ccccc3c2=O)cc1O [VX-770, N-(2,4-Di-tert-butyl-5-hydroxyphenyl)-4-oxo-1,4-dihydroquinoline-3-carboxamide]
